Assay results: patent US20260234188A1, “CHEMOKINE-BINDING PEPTIDES” (Oxford University Innovation Limited, priority 2022, published 2026)
“Also recorded” adds a separate entry of the source.

Tested on: panel of up to 42 human chemokines
Experiment: Phage-display next generation sequencing screen of overlapping hexadecapeptide libraries, chemokines displayed on streptavidin beads;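 note: chemokine listed when log2 fold enrichment exceeds 5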
Format: binding
Conditions: log2E greater than 5, chemokines named by first part of UniProt Entry Name
In short: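 Phage-display libraries of 55662 overlapping hexadecapeptides from tick and viral chemokine-binding proteins, human chemokines and chemokine receptors screened against up to 42 human chemokines, with hits found by next-generation sequencing. Peptides mapped to parent-protein position with log2 fold enrichment; regions of interest where cumulative residue log2 E exceeds the 95% upper CI of the protein median.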

Substance | Chemokines Bound
CR4135 (EIYEYLFFFSFFFLAL) | CCL20, CCL25,; also recorded: CXL11, CXL13
CR5103 (FGLLGNILVVITFAFY) | CCL19, CCL20,; also recorded: CCL22, CCL28,; also recorded: CXL10, SDF1,; also recorded: CXL14
CR23443 (TNWKLLAEIYEYLFFF) | CCL17, CCL18,; also recorded: X3CL1, CXL10,; also recorded: CXL13
CR23002 (TIWLVGFLLALPEILF) | CCL17, CCL18, and CCL19, CCL20, and CCL25, CCL28, and X3CL1, SDF1, and CXL13, CXL14, and IL8
CR25244 (VLLSWKVLLTMVWGAA) | CCL11, CCL17,; also recorded: CCL18, CCL19,; also recorded: CCL2, CCL20,; also recorded: CCL22, CCL25,; also recorded: CCL28, X3CL1,; also recorded: CXL10, CXL11,; also recorded: SDF1, CXL13,; also recorded: CXL14, IL8
CR26592 (WKLLAEIYEYLFFFSF) | CCL19, CCL20,; also recorded: CCL22, CXL14
CR27050 (YDLFIGIKIVYCFLWG) | CCL1, CCL17,; also recorded: CCL19, CCL20,; also recorded: CCL22, X3CL1,; also recorded: CXL10, CXL11,; also recorded: SDF1, CXL13,; also recorded: CXL14, IL8
CR26721 (WSLVFMAIERINYFAY) | CCL17, CCL18,; also recorded: CXL10
CR26655 (WMNILWAWFIFWWPHG) | CCL17, CCL18,; also recorded: CCL19, CCL20,; also recorded: CCL28, CXL10,; also recorded: SDF1, IL8
CR5242 (FIGFFGSIFFITVISI) | CCL17, CCL18,; also recorded: CCL20, X3CL1,; also recorded: CXL13
CR2439 (CALVTLITSLFGSIFK) | CCL17, CCL18, and CCL19, CCL20, and CXL10, SDF1, and CXL13, CXL14, and IL8
CR26547 (WHWVFGSFLAKMVSTL) | CCL1, X3CL1,; also recorded: CXL14
CR5245 (FIGIKIVYCFLWGIFP) | CCL1, CCL15,; also recorded: CCL17, CCL18,; also recorded: CCL19, CCL20,; also recorded: CCL22, CCL25,; also recorded: CCL28, X3CL1,; also recorded: CXL10, CXL11,; also recorded: SDF1, CXL13,; also recorded: CXL14, IL8
CR26310 (VWLMSIVGTFLNVLVI) | CCL17, CCL18,; also recorded: CCL2, CXL10,; also recorded: CXL11, SDF1,; also recorded: CXL14, IL8
CR23572 (TRFGVWLMSIVGTFLN) | CCL17, CCL18,; also recorded: CCL2, CCL20,; also recorded: CCL22, CCL25,; also recorded: X3CL1, IL8
CR25151 (VLGDFLCKLLNMIFSI) | CCL18, CCL2, and CCL28, X3CL1, and CXL10, CXL14, and IL8
CR26630 (WLMCIVGTFLNVLVIT) | CCL1, CCL17,; also recorded: CCL18, CCL19,; also recorded: CCL20, CCL22,; also recorded: CCL28, CCL8,; also recorded: X3CL1, CXL10,; also recorded: CXL11, SDF1,; also recorded: CXL14, IL8
CR24107 (TYIILLLTWFAGLIFS) | CCL22, CCL25,; also recorded: CXL11
CR3135 (DFLCKLLNMIFSISLY) | CCL17, CCL22,; also recorded: CCL25, CCL28,; also recorded: CXL11, IL8
CR26399 (VYTVLLSWKVLLTLVW) | CCL1, CCL17, and CCL18, CCL19, and CCL20, CCL22, and CCL25, CCL28, and X3CL1, CXL10, and CXL11, SDF1, and CXL13, CXL14, and IL8
CR23112 (TLFASDFVLMWCVFFM) | CCL17, CCL19,; also recorded: CCL20, CCL22,; also recorded: CCL8, X3CL1
CR5077 (FGFFIPLMFMIFSYTF) | CCL18, X3CL1,; also recorded: CXL14
CR23947 (TVKLIFAIVVAYFLSW) | CCL17, CCL20,; also recorded: CCL22, CCL28,; also recorded: SDF1, CXL14
CR5243 (FIGFFSGIFFIILLTI) | CCL17, CCL18,; also recorded: CCL19, CCL20,; also recorded: CCL22, CXL11,; also recorded: SDF1, CXL14

Same assay, conditions: log2E greater than 5, chemokines named by first part of UniProt Entry Name, peptides binding complement C5a (control) excluded

Substance | Chemokines Bound
CR8675 (IAYSLIAVFGLLGNIL) | CCL17, CCL22,; also recorded: CCL25, CCL28,; also recorded: CXL11
CR6489 (FWAVDAVANWYFGNFL) | CCL17, CCL18, and CCL22, CCL28, and CXL10, CXL14, and IL8
CR8966 (IFWWIFAVIIAIPHFM) | IL8
CR7642 (GSMLLSVLFTLYVSTL) | CCL25, CXL10,; also recorded: CXL11, CXL13
VP6289 (MVAVALYAYGLAFRLM) | CCL1, CCL11,; also recorded: CCL15, CCL17,; also recorded: CCL19, CCL2,; also recorded: CCL20, CCL22,; also recorded: CCL25, CCL28,; also recorded: CCL5, CXL10,; also recorded: SDF1, IL8
CR7477 (GPGPWMNILWAWFIFW) | CCL17, CCL18, and CCL19, CCL20, and CCL25, CXL13, and IL8
CR9113 (IIFSYVVVFLVSWLPY) | CCL17, CCL20, and CCL22, CCL28, and X3CL1, CXL10, and CXL11, SDF1, and CXL13, CXL14, and IL8
CR9889 (ISLLAEVLMFLFPNII) | CCL17, CCL18,; also recorded: CCL20, CCL25,; also recorded: CCL28, CXL13
EEEDDYTAYAPLTCYF [HD7] | CCL1, CCL11, and CCL15, CCL17, and CCL18, CCL20, and CCL22, CCL3, and CCL4, CCL5, and CCL8
VP11669 (YSLVFVILMCIPFSFQ) | X3CL1, CXL10,; also recorded: CXL11, IL8
EB1522 (GNSTEGRCIELIGDFD) | CXL11, SDF1,; also recorded: CXL14
EB3094 (SGNCTCYHEDGKKVGL) | CXL10, CXL11, and SDF1
CR5738 (FLWGIFPTVIFSYFYV) | CCL18, CCL22, and CCL8, X3CL1, and CXL10, CXL11, and IL8
CR8339 (HRTVKLIFAIVVAYFL) | CCL28, X3CL1,; also recorded: CXL11, SDF1,; also recorded: CXL14
CR6520 (FWWIFAVIIAIPHFMV) | CXL10, CXL11
CR8546 (IAAFSWFMLSLPLLFL) | CCL22, CCL28,; also recorded: CXL14
CR8812 (IFFIILLTIDRYLAIV) | CCL18, CCL19,; also recorded: CCL22, CXL14
TDGTACYVVERKVWDR [HD3838] | CCL19, CCL2,; also recorded: CCL20, CCL28
EB630 (DKKVGLCLSTEYTDFS) | CXL10, SDF1,; also recorded: CXL14
LEEEDDYTAYAPLTCY [HD2134] | CCL1, CCL11, and CCL15, CCL17, and CCL18, CCL22, and CCL4, CCL5, and CCL8
CR7814 (GVVTSVITWLVAVFAS) | CCL11, CCL2, and CCL22, CCL8, and IL8
EB2905 (SACSGDCVCVHRDNEP) | CXL10, CXL11, and SDF1

Same assay, conditions: log2E greater than 5, chemokines named by first part of UniProt entry name, C5a (control) binders excluded

Substance | Chemokines Bound
CR19192 (RLGVWLMSIVGTFLNV) | CCL1, CCL17,; also recorded: CCL2, CCL25,; also recorded: X3CL1, CXL11
CR13634 (LMLVFSFVSMLASLAH) | CCL19, CCL28,; also recorded: CXL13, CXL14
CR1923 (ATFKILISIVWGVMPV) | CCL18, CCL28,; also recorded: X3CL1, CXL10,; also recorded: CXL11, SDF1,; also recorded: CXL13, IL8
CR14316 (LSISLLAEVLMFLFPN) | CCL17, CCL18,; also recorded: CCL19, CCL2,; also recorded: CCL20, CCL22,; also recorded: CCL25, X3CL1,; also recorded: CXL14
CK4643 (RITNIQCPKEAVIFKT) | CCL1, CCL19,; also recorded: CCL20
CR13108 (LLFFVFSFPYHVLNLL) | CCL17, CCL18,; also recorded: CXL10, CXL11,; also recorded: CXL14, IL8
CR21134 (SLSISLLAEVLMFLFP) | CCL17, CCL18, and CCL2, CCL25, and CCL28, X3CL1, and CXL10, CXL11, and SDF1, CXL14, and IL8
CR13391 (LLQALYSAVVPLIYSC) | CCL1, CCL18,; also recorded: CXL14
CR2051 (ATYMLLVLYYAMLPLM) | CCL20, CCL22,; also recorded: CCL28, X3CL1,; also recorded: CXL10, SDF1,; also recorded: CXL14, IL8
CR13967 (LPTMVFSFFYVIFSKA) | CCL1, CCL17,; also recorded: CCL18, CCL19,; also recorded: CCL20, CCL28,; also recorded: CXL10
CK1982 (IFKTIVAKEICADPKQ) | CCL1, CCL22,; also recorded: CCL5, X3CL1,; also recorded: CXL10, CXL13
CR13458 (LLSVLFTLYVSTLDFS) | CCL18, CCL2, and CCL20, CXL10, and CXL11, SDF1, and CXL13, CXL14, and IL8
CR21238: chemokine binding peptide of Table 5A used in FIG. 5 combinations (SMILESLFSALVTLIT) | CCL2, CXL11, and IL8
CR17907 (PYHWGWVLGDFLAKLL) | CCL17, CCL18,; also recorded: CCL25
CR13605 (LMFMIFAYTFIVKTLV) | CCL17, CCL18,; also recorded: CCL20, CCL22,; also recorded: CXL10
CR14585 (LTLKVILGFFLPFVVM) | CCL17, CCL18,; also recorded: CCL19, CCL20,; also recorded: CXL14
CR20433 VP8386 (SFYVAMFASLSFITEI) | CCL1, X3CL1, and CXL10, CXL11, and IL8
CR15502 (MIFTWNLVLSQFFSIL) | CCL11, CCL17,; also recorded: CCL18, CCL19,; also recorded: CCL20, CCL22,; also recorded: CCL25, CCL28,; also recorded: CCL8, X3CL1,; also recorded: CXL10, CXL11,; also recorded: SDF1, CXL13,; also recorded: CXL14, IL8
CR1325 (ALYSLLFLLGLLGNGA) | CCL17, CCL19,; also recorded: CCL2, CCL20,; also recorded: CCL22, CXL11,; also recorded: CXL14
CR12163 (LFIGIKIVYAFLWGIF) | CCL18, CCL19,; also recorded: CCL2, CCL25,; also recorded: CCL28, X3CL1,; also recorded: CXL10, SDF1,; also recorded: CXL13, CXL14
CR15077 (LYAHLAAAFLWVVVAV) | CCL18, CCL19,; also recorded: CCL20, CCL22,; also recorded: CCL25, CCL28,; also recorded: CXL10, CXL11,; also recorded: SDF1, IL8
CR12569 (LGVWLMAIVGTFLNVL) | CCL2, X3CL1,; also recorded: CXL10, CXL11
CR20660 (SIILMFLSDFSFIFSS) | CCL25, CXL13, and IL8
CR15930 (MVIWVLAFFLSSPSLV) | CCL28, CXL10,; also recorded: CXL14
CR15670 (MMTWFYAFFYSTVQRA) | CCL18, CCL2, and CCL20, CCL25, and CCL28, CCL8, and X3CL1, CXL13, and IL8
CR13324 (LLMLGLELLFGFFIPL) | CCL1, CCL11,; also recorded: CCL17, CCL18,; also recorded: CCL2, CCL20,; also recorded: CCL22, CCL28,; also recorded: CXL10, CXL11,; also recorded: SDF1, CXL14
CR11556 (LAKLEAFFLNLSIYWS) | CCL18, CCL2, and CCL25, CCL28, and CCL8, X3CL1, and CXL10, CXL11, and SDF1, CXL13, and IL8
CR16988 (NVTFTGLIAAFSWFML) | CCL17, CCL18,; also recorded: CCL20, CCL22,; also recorded: CCL25, CCL28,; also recorded: CXL10, SDF1,; also recorded: CXL14
CR18933 (RFGVWLMSIVGTFLNM) | CCL28, CXL10, and IL8
